From patent publication US10101322B2, “Photoactivated chemical bleaching of dyes using borates” (GENERAL ELECTRIC COMPANY, priority 2015, dated 2018)
Entries after “also recorded” stand apart in the source; their conditions may differ.

Assays:
[1] = Eosin Y bleaching with borates in ethanol; settings: 1 mM borate, 2 min irradiation, 100 W halogen lamp
Protocol: To a 2 mL solution of Eosin in ethanol (2.5×10^-5M solution), 2 mL of 1 mM of anionic borate (MBB), a neutral borate a, (Formula I) or a neutral borate b (Formula I) were added and the solution was irradiated for 1-2 minutes using 100 W halogen lamp. Absorbance at λmax of dye was measured to monitor photobleaching, and the results were plotted, as is shown in the bar graph plot of FIG. 7.

[2] = Stability of solid borate on exposure to air (1H NMR, colour)
[3] = Eosin Y bleaching with borates in water; settings: aqueous solution; in Example 2A 0.5 mM borate, 1 minute, 100 W halogen lamp
Protocol: To a 2 mL solution of Eosin in water (2.26×10^-5M solution), 2 mL of 0.5 mM of cationic Borate (e′), Cationic Borate (f′) or anionic borate (MBB) were added, and the solution was irradiated for 1 minute using 100 W halogen lamp. […] FIG. 6 is a bar graph comparing bleaching kinetics of eosin by different borates MBB (a), e′ (b), and f′ (c).

[4] = Cy3 bleaching with borates in water; settings: aqueous solution; in Example 2D 0.5 mM borate, 100 W halogen lamp, absorbance at 552 nm
Protocol: To a 2 mL solution of previously hydrolyzed Cy3 bis reactive dye in water (3.4×10^-5M solution), 2 mL of 0.5 mM solution of anionic borate (MBB), cationic borate (e′) or cationic borate (f′) were added and the solution was irradiated. […] FIG. 10 is a bar graph comparing bleaching kinetics of Cy3 by different borates.

[5] = Cy3 dye bleaching with borates in ethanol; settings: 1 mM borate, 1 minute, 100 W halogen lamp, absorbance at 552 nm
Protocol: To a 2 mL solution of previously hydrolyzed Cy3 bisreactive dye (GE Healthcare) in ethanol (2.5×10^-5M solution), 2 mL of 1 mM solution of one of the following borates: anionic borate (MBB), neutral borate, a or b (Formula I), and cationic borates e′ or f′ in ethanol was added. Samples were irradiated for 1 minute using 100 W halogen lamp. The decrease in Cy3 absorbance at 552 nm was measured to monitor photobleaching, and the results were plotted, as is shown in FIG. 8. The bar graph compares the bleaching kinetics of Cy3 by different borates in ethanol.

[6] = Charge transfer complex formation between Eosin-Y and cationic borate (UV-Vis titration); assay type: physicochemical; settings: without irradiation
Protocol: A 50 ul of 1 mM eosin solution in water was further diluted to 3 ml with water and to this was added 1 mM solution of f′ (Formula I) in water in 25 ul portions. UV-Vis spectrum was acquired after every 25 μL f′ addition.
This is believed to be due an electrostatic charge-transfer complex formulation between cationic borate: eosin-y complex.
This phenomenon may be attributed to formation of charge-transfer complex between anionic Eosin-Y and cationic Borate. The electrostatic charge transfer formation is responsible for quenching of Eosin-Y fluorescence.

[7] = tested on: Her2/CEP17 DNA FISH signal; assay: DNA FISH signal bleaching and FISH on PICB bleached slides; set-up: species or system Human
Protocol: Slides were H&E stained and bleached as described above. Alternatively previously imaged and archived H&E slides were processed through the steps of decoverslipping, hydration, antigen retrieval, blocking and bleaching with f′ as described above for freshly stained H&E slides.
Slides were immersed in a pre-warmed 0.1% pepsin solution for 8 minutes then placed in room temperature PBS for 2 minutes. Samples were re-fixed in 4% formalin for 10 minutes then washed 2×5 minutes in PBS. Slides were dehydrated in ethanol series 50%, 70%, and 95%, 2 minutes each and allowed to dry on bench top for 10 minutes. Pre-mixed dual Her2/CEP17 probe was vortexed, spun, and added to samples. Samples were coverslipped and sealed with a rubber sealant per usual practice. After allowing rubber cement to cure for 10 minutes, probes were hybridized in Thermobrite cycler: 80° C. denaturation for 10 minutes followed by 37° C. incubation overnight. Rubber cement was removed and slides were decoverslipped in preheated 37° C. 2×SSC for 5 minutes. […] Slides were washed 2×2 minutes with 2×SSC, removed from buffer to dry, coverslipped with 4% DABCO in 90% glycerol/2×SSC, and imaged on an Olympus IX81 fluorescence microscope using a 40× objective with following exposure times: for DAPI (2 ms), spectrum green (CEP17-200 ms), and spectrum orange (Her2-400 ms). […]

[8] = Residual eosin bleaching (PICB) in H&E stained tissue sections; set-up: species or system Human; settings: 0.15 mM f′, irradiation in presence of DABCO, three cycles
Protocol: Human breast tissue array samples were obtained as tissue slides embedded in paraffin from Clarient (Huntsville, Ala.). Slides were baked at 60° C. for 15 minutes and then washed with xylene (1×10 min) to remove paraffin.
All the slides were stained with hematoxylin and eosin and coverslipped following the standard procedures in the literature (IHC World LLC, Protocol Database, Hematoxylin and Eosin (H&E) Staining Protocol). After staining, the images were obtained as described below.
Bright field and Fluorescence images were taken for all the slides using Leica bright field microscope and Olympus IX81 fluorescence microscope (Olympus Co., Tokyo, Japan respectively. For fluorescence imaging the following excitation filters were used: eosin 500/40 nm, Cy3 550/40 nm and Cy5 650/40 nm.
After imaging, samples were decoverslipped by incubation in xylenes overnight and hydrated by washing in four solutions of ethanol with concentrations decreasing in the order of 100%, 95%, 70%, and 50% followed by a wash with 1× phosphate buffer saline (PBS, pH 7.4). After rehydration, the slides were washed with 1×PBS. A ten minute incubation in 0.3% Triton X-100 in PBS was performed for membrane permeabilization of the tissue, followed by a wash with 1×PBS.
Hydrated slides were treated with dual-buffer heat-induced epitope retrieval. […] Slides were imaged by brightfield and fluorescence microscopy. […]

SMILES	order of Eosin photobleaching kinetics [1]	time to evidence of decomposition ([2]; exposure to air) [min]	colour change on exposure to air ([2]; white solid stored inertly)	Eosin-Y photobleaching compared to anionic borate (MBB) [3]	Cy3 bleaching kinetics compared to anionic borate (MBB) [4]	Cy3 bleaching kinetics [5]	decomposition ([2]; after 2 months of exposure to air) [%]	degradation by 1 HNMR ([2]; solid form, exposure to air for over 5 weeks)	bathochromic (red-shift) of the Eosin-Y peak ([6]; 1 mM f′ added in 25 ul portions to eosin in water)	colour change of eosin solution on borate addition ([6]; water)	bleaching of DNA FISH signal [7]	bleaching of residual eosin signal in tissue [8]
c1ccc(C[B-](c2ccccc2)(c2ccccc2)c2ccccc2)cc1 [MBB, monobenzyltriphenyl borate, reference compound]	cationic>neutral>anionic	< 10	becoming yellow in color immediately on exposure to air									
C[N+](C)(C)c1ccc([B-](c2ccc([N+](C)(C)C)cc2)(C2CCCC2)C2CCCC2)cc1.[I-] [e′]	cationic>neutral>anionic			improved	much faster bleaching kinetics	performed well						
COS(=O)(=O)[O-].C[N+](C)(C)c1ccc([B-](c2ccc([N+](C)(C)C)cc2)(C2CCCC2)C2CCCC2)cc1 [f′]	cationic>neutral>anionic			significantly improved	significantly improved; also recorded: much faster bleaching kinetics	performed well	~2	no degradation	518 nm shifts to 523 nm	clear change in color to non-fluorescent pink	erased	efficient bleaching; also recorded: efficiently bleach eosin; also recorded: effective bleaching; also recorded: mostly removed
